Assay results taken from patent publication US20250043031A1, “NOVEL DRYING METHOD FOR OLIGOSACCHARIDES” (INBIOSE N.V., priority 2021, published 2025).
Converted amounts (≈) assume the structure as drawn.

How the values were obtained:
[1] = Moisture / water content of dried oligosaccharide powder (Karl Fischer titration, infrared moisture analyzer); format: physicochemical; conditions: powder from ATFD system B; heated surface 64-70° C., 20-40 mbar, rotor 800-850 rpm; about 20% dry weight solution in reverse osmosis water
Source text: Sartorius MA150 Infrared Moisture Analyzer is used to determine the dry matter content of the oligosaccharides. 0.5 g of oligosaccharide is weighed on an analytical balance and is dried in the infrared moisture analyzer until the weight of the sample is stable. The mass of the dried sample divided by the mass of the sample before drying gives the dry matter content (in percent) of the oligosaccharides or sample including oligosaccharides. In a similar way a liquid sample is weighed, however, the amount of liquid weighed is adapted to the expected amount of dry matter in the liquid, so the mass of the dry matter is properly measurable on an analytical balance.
A moisture analyzer measures the dry matter, but not the water content. Karl Fisher titration is used to determine the amount of water present in a powder, ingredient of food. […]
The moisture content (MC) of sample was calculated using the following equation: […]
For testing the principle of agitated thin film drying on oligosaccharides according to the disclosure, a model system (i.e., system A as described throughout the Examples) is used wherein the model directly translates to large scale manufacturing. […] The ATFD chamber was equipped with a Liebig condenser and a dropping funnel to condense and quantify the vapor release. […]
Solutions (such as syrups) containing an oligosaccharide or a mixture of oligosaccharides were preheated to a temperature between 3° and 100° C. and pumped to the system with a peristaltic pump with a flow ranging from 0.1 to 1 kg/h. […] The amount of condensed water was measured and used to obtain the evaporation rate. The specific evaporation rate was calculated by dividing the evaporation rate by the used heat exchange area.
A pilot ATFD system (i.e., system B as described throughout the Examples) was used to produce larger amounts of dried oligosaccharide. […] The amount of condensed water was measured and used to obtain the evaporation rate. The specific evaporation rate was calculated by dividing the evaporation rate by the used heat exchange area. […]

[2] = Oligosaccharide analysis of ATFD powder: breakdown during the drying run; format: physicochemical; conditions: ATFD system B; 1-hour run (2′FL) or 2-hour run (LNnT, 6′SL); heated surface 64-70° C., 20-40 mbar
Method: Neutral oligosaccharides were analyzed on a Waters™ Acquity H-class UPLC with Evaporative Light Scattering Detector (ELSD) or a Refractive Index (RI) detection. A volume of 0.7 μL sample was injected on a Waters™ Acquity UPLC BEH Amide column (2.1×100 mm; 130 Å; 1.7 μm) column with an Acquity UPLC BEH Amide VanGuard column, 130 Å, 2.1×5 mm. The column temperature was 50° C. The mobile phase consisted of a ¼ water and ¾ acetonitrile solution to which 0.2% triethylamine was added. The method was isocratic with a flow of 0.130 mL/min. […] The temperature of the RI detector was set at 35° C.
Sialylated oligosaccharides were analyzed on a Waters™ Acquity H-class UPLC with Refractive Index (RI) detection. A volume of 0.5 μL sample was injected on a Waters™ Acquity UPLC BEH Amide column (2.1×100 mm; 130 Å; 1.7 μm). The column temperature was 50° C. The mobile phase consisted of a mixture of 70% acetonitrile, 26% ammonium acetate buffer (150 mM) and 4% methanol to which 0.05% pyrrolidine was added. The method was isocratic with a flow of 0.150 mL/min. The temperature of the RI detector was set at 35° C.
Both neutral and sialylated sugars were analyzed on a Waters™ Acquity H-class UPLC with Refractive Index (RI) detection. A volume of 0.5 μL sample was injected on a Waters™ Acquity UPLC BEH Amide column (2.1×100 mm; 130 Å; 1.7 μm). The column temperature was 50° C. The mobile phase consisted of a mixture of 72% acetonitrile and 28% ammonium acetate buffer (100 mM) to which 0.1% triethylamine was added. The method was isocratic with a flow of 0.260 mL/min. The temperature of the RI detector was set at 35° C.
A pilot ATFD system (i.e., system B as described throughout the Examples) was used to produce larger amounts of dried oligosaccharide. The inner diameter and length of the drying chamber is 15.1 cm and 41.7 cm, respectively. The heat exchanger area is 0.2 m^2. […] The amount of condensed water was measured and used to obtain the evaporation rate. The specific evaporation rate was calculated by dividing the evaporation rate by the used heat exchange area.

[3] = Bulk density of powder (ASTM D1895 method A, i.e., ISO Method R 60); format: physicochemical; conditions: for bulk density of the powder obtained by ATFD, average during the run: ATFD system B powder; for bulk density of the spray dried powder: spray dried powder (comparison)
Source text: As used herein, the term “bulk density” is the weight of the particles of a particulate solid (such as a powder) in a given volume, and is expressed in grams per liter (g/L). The total volume that the particles of a particulate solid occupy depends on the size of the particles themselves and the volume of the spaces between the particles. Entrapped air between and inside the particles also can affect the bulk density. Thus, a particulate solid consisting of large, porous particles with large inter-particulate spaces will have a lower bulk density than a particulate solid consisting of small, non-porous particles that compact closely together. Bulk density can be expressed in two forms: “loose bulk density” and “tapped bulk density.” Loose bulk density (also known in the art as “freely settled” or “poured” bulk density) is the weight of a particulate solid divided by its volume where the particulate solid has been allowed to settle into that volume of its own accord (e.g., a powder poured into a container).
Techniques for measuring bulk density are well known in the art. Loose bulk density may be measured using a measuring cylinder and weighing scales: the particulate solid is poured into the measuring cylinder and the weight and volume of the particulate solid; weight divided by volume gives the loose bulk density. Tapped bulk density can be measured using the same technique, with the addition of tapping the measuring cylinder a set number of times before measuring weight and volume. Automation of tapping ensures the number, timing and pressure of individual taps is accurate and consistent. Automatic tapping devices are readily available, an example being the Jolting Stampfvolumeter (STAV 203) from J. Englesmann A G.
Lacto-N-neotetraose (LNnT) was recombinantly produced in E. coli according to Example 2, followed by a cell lysis treatment and/or broth clarification according to Example 4. The clarified broth was finally spray dried as described in Example 1 to obtain a powder comprising LNnT (74%), pLNnH (13%; para-lacto-N-neohexaose) and LNT-II (3%; lacto-N-triose II). A solution (16.1 kg) of LNnT was then prepared in reverse osmosis water such that the dry weight is 19.60%. The LNnT solution was then fed into the ATFD system B (it is referred to Example 1) at 7.7 kg/h. […] Every 5 minutes, a sample of the obtained powder was analyzed according to Example 1 (dry matter content, moisture content, oligosaccharide analysis, color).
6′-sialyllactse (6′SL) was recombinantly produced in E. coli according to Example 2, followed by a cell lysis treatment and/or broth clarification according to Example 4. […] Every 5 minutes, a sample of the obtained powder was analyzed according to Example 1 (dry matter content, moisture content, oligosaccharide analysis, color).

[4] = Color of powder obtained by ATFD; format: physicochemical; conditions: ATFD system B; from 15 min (2′FL), 30 min (LNnT) or 20 min (6′SL) and at each subsequent time-point
Source text: In a first aspect, provided is a method for drying an oligosaccharide and/or for obtaining an oligosaccharide in the form of a solid (preferably a powder), the method comprising the steps of: • i) providing a solution comprising an oligosaccharide; and • ii) applying the solution to an agitated thin film dryer, • wherein the oligosaccharide has a degree of polymerization (DP) that is less than 16, preferably less than 15, even more preferably less than 14, even more preferably less than 13, even more preferably less than 12, even more preferably less than 11, even more preferably less than 10, even more preferably less than 9, even more preferably less than 8, most preferably less than 7. […] The “ICUMSA” refers to the International Commission for Uniform methods of Sugar Analysis, i.e., the unit used for the measurement of sugar color.
A pilot ATFD system (i.e., system B as described throughout the Examples) was used to produce larger amounts of dried oligosaccharide. The inner diameter and length of the drying chamber is 15.1 cm and 41.7 cm, respectively. The heat exchanger area is 0.2 m^2. The heat exchanger area can be heated at 50-120° C. using steam. The distance between the rotor and wall is 0.9 mm. The blades can rotate at 200-2200 rpm. The condenser was operated with cooling water of 5-6° C. The amount of condensed water was measured and used to obtain the evaporation rate. The specific evaporation rate was calculated by dividing the evaporation rate by the used heat exchange area.

[5] = 25° C.; literature values (WO2018/164937, EFSA Journal); cited from earlier work

Molecule | mean moisture content [1] | oligosaccharide broken down at the end of the run [2] | bulk density of the powder obtained by ATFD, average during the run [3] [g/L] | bulk density of the spray dried powder [3] [g/L] | color of the obtained powder [4] | solubility in an aqueous solution [5]
CC(=O)N[C@H]1[C@H]([C@H](O)[C@H](O)CO)O[C@@](OC[C@H]2O[C@@H](O[C@H]3[C@H](O)[C@@H](O)[C@H](O)O[C@@H]3CO)[C@H](O)[C@@H](O)[C@H]2O)(C(=O)O)C[C@@H]1O [6′-sialyllactose] | 6.2-6.8% | less than 10% | 521 ± 10 | 321 | white to off-white | at least 500 g/L
CC(=O)N[C@H]1[C@H]([C@H](O)[C@H](O)CO)O[C@@](O[C@H]2[C@@H](O)[C@@H](CO)O[C@@H](O[C@H]3[C@H](O)[C@@H](O)C(O)O[C@@H]3CO)[C@@H]2O)(C(=O)O)C[C@@H]1O (stereo partly drawn) [3′-sialyllactose] |  |  |  |  |  | 500 mg/mL (≈ 789 mM)
2′-fucosyllactose | 2.47% | less than 4% |  |  | white to off-white | 1410 mg/mL
CC(=O)N[C@H]1[C@H](O[C@H]2[C@@H](O)[C@@H](CO)O[C@@H](O[C@H]3[C@H](O)[C@@H](O)C(O)O[C@@H]3CO)[C@@H]2O)O[C@H](CO)[C@@H](O)[C@@H]1O[C@@H]1O[C@H](CO)[C@H](O)[C@H](O)[C@H]1O (stereo partly drawn) [Lacto-N-tetraose] |  |  |  |  |  | 400 mg/mL (≈ 565 mM)
CC(=O)N[C@H]1[C@H](O[C@H]2[C@@H](O)[C@@H](CO)O[C@@H](O[C@H]3[C@H](O)[C@@H](O)C(O)O[C@@H]3CO)[C@@H]2O)O[C@H](CO)[C@@H](O[C@@H]2O[C@H](CO)[C@H](O)[C@H](O)[C@H]2O)[C@@H]1O (mixture of isomers) [Lacto-N-neotetraose] | 5.5% | less than 10% | 509 ± 16 | 368 | white to off-white | 500 mg/mL
